Reference: patent US8153142B2, “Skin treatment composition” (Shiseido Co., Ltd., priority 2001, dated 2012)

Experiments:
[1] = tested on: human skin (forearms of 10 panelists); experiment: Conductance measuring test; format: in vivo; details: for Conductance 30 min-after / Conductance 60 min-after / Conductance 120 min-after: 10% aqueous solution; for Conductance 30 min-after: 30 minutes after application; for Conductance 60 min-after: 60 minutes after application; for Conductance 120 min-after: 120 minutes after application
Experimental: (i) Conductance Measuring Test
Using forearms of 10 panelists, the skin conductance was measured before application and for 30 minutes, 60 minutes and 120 minutes after application, and the moisturizing effect was evaluated from a change rate thereof. The change rate of the skin conductance is calculated by the following equation (II): Conductance change rate=[…].
The change rate can be used for study of the influences on a water-absorbing property and a moisture retaining ability of a keratin layer. When this change rate is small, there is increase in the moisture in a keratin layer, thus, it can be evaluated that the moisturizing effect is high.
The evaluation criteria of conductance measuring test is as follows: • {circumflex over (◯)}: The average of conductance change rate of 10 panelists is not less than 0 and less than 0.1 • ◯: The average of conductance change rate of 10 panelists is not less than 0.1 and less than 0.2 • Δ: The average of conductance change rate of 10 panelists is not less than 0.2 and less than 0.5 • X: The average of conductance change rate of 10 panelists is not less than 0.5

[2] = tested on: human skin (medial parts of brachiums); experiment: Evaluation No.(7): Skin Stimulation Test B (smart feeling); format: in vivo
Experimental: (viii) Evaluation No.(7): Skin Stimulation Test B
A smart feeling when a sample applied on medial parts of brachiums of 10 panelists was graded based on the following criteria and, thereafter, an average was calculated: • 0: No smart feeling is perceived. • 1: Slight smart feeling or redness is perceived. • 2: Smart feeling or redness is perceived. • 3: Smart feeling and redness are perceived.
(§1) The evaluation criteria of skin stimulation test B is as follows: • {circumflex over (◯)}: The average of 10 panelists is not less than 0 and less than 0.1 • ◯: The average of 10 panelists is not less than 0.1 and less than 0.15 • Δ: The average of 10 panelists is not less than 0.15 and less than 0.2 • X: The average of 10 panelists is not less than 0.2

[3] = tested on: human skin; experiment: Evaluation No.(8): Refreshing Effect Durability; format: in vivo; details: for Refreshing feeling (8): basic composition B
Experimental: (ix) Evaluation No.(8): Refreshing Effect Durability A presence or absence of refreshing feeling for 120 minutes after use was evaluated by 10 special panelists. The evaluation criteria is as follows: • {circumflex over (◯)}: Not less than 8 special panelists recognized that there was refreshing feeling durability. • ◯: Not less than 6 and less than 8 special panelists recognized that there was refreshing feeling durability. • Δ: Not less than 3 and less than 6 special panelists recognized that there was refreshing feeling durability. • X: Less than 3 special panelists recognized that there was refreshing feeling durability.

[4] = tested on: rough skin on cheek; experiment: Evaluation No.(4): Rough Skin Improving Effect Test; format: in vivo, human; details: compound 5% by weight in basic composition A
Experimental: (v) Evaluation No.(4): Rough Skin Improving Effect Test A rough skin improving effect test was performed by using 10 panelists having rough skin on cheek. According to a test schedule, different skin lotions were applied on left and right cheeks for 1 week, and the effect was determined on the next day after the last day of the test period. The evaluation criteria is as follows: • {circumflex over (◯)}: Not less than 8 panelists recognized that the rough skin was improved. • ◯: Not less than 6 and less than 8 panelists recognized that the rough skin was improved. • Δ: Not less than 3 and less than 6 panelists recognized that the rough skin was improved. • X: Less than 3 panelists recognized that the rough skin was improved.

[5] = tested on: human skin (medial parts of brachiums); experiment: Evaluation No.(5): Skin Stimulation Test A (occluding patch); format: in vivo; details: compound 5% by weight in basic composition A
Experimental: (iv) Evaluation No.(5): Skin Stimulation Test A
Occluding patch was performed on medial parts of brachiums of 10 panelists for 24 hours and, thereafter, an average was calculated based on the following criteria: • 0: No abnormality is perceived. • 1: Slight redness is perceived. • 2: Redness is perceived. • 3: Redness and papula are perceived.
as §1, with “A” for “B”

[6] = tested on: human skin; experiment: Evaluation No.(3): Moisturizing Effect Feeling; format: in vivo; details: compound 5% by weight in basic composition A
Experimental: (iv) Evaluation No.(3): Moisturizing Effect Feeling Practical test on the presence or absence of the moisturizing effect feeling for 120 minutes after use was performed by using 10 special panelists. The evaluation criteria is as follows: • {circumflex over (◯)}: Not less than 8 special panelists recognized that there was the moisturizing effect feeling. • ◯: Not less than 6 and less than 8 special panelists recognized that there was the moisturizing effect feeling. • Δ: Not less than 3 and less than 6 special panelists recognized that there was the moisturizing effect feeling. • X: Less than 3 special panelists recognized that there was the moisturizing effect feeling.

Compound | Conductance 30 min-after [1] | Conductance 60 min-after [1] | Conductance 120 min-after [1] | Stimulation B (7) ([2]; Table 11, tested compound 5.0 wt % in basic composition B (L-menthol 0.1)) | Evaluation in conductance measuring (120 min after) ([1]; Table 7, 5% alone in ion-exchange water 95%) | Refreshing feeling durability (8) ([3]; Table 11, tested compound 5.0 wt % in basic composition B (L-menthol 0.1), 120 minutes after use) | Rough skin Evol. No. (4) ([4]; Table 2, applied 1 week) | Evaluation (4) rough skin improving effect ([4]; Table 4) | Stimulation B (7) ([2]; Table 12, basic composition B, tested compound 5.0 wt %) | Stimulation B (7) ([2]; Table 13, Y/X study, basic composition B) | Stimulation B (7) ([2]; Table 14, basic composition B, tested compound 5.0 wt %) | Stimulation A Evol. No. (5) ([5]; Table 2, occluding patch 24 hours) | Evaluation (5) skin stimulation A ([5]; Table 4) | Refreshing feeling (8) ([3]; Table 12, tested compound 5.0 wt %) | Refreshing feeling (8) ([3]; Table 13, Y/X study) | Refreshing feeling (8) ([3]; Table 14, tested compound 5.0 wt %) | Moisturizing Evol. No. (3) ([6]; Table 2, 120 minutes after use) | Evaluation (3) moisturizing effect feeling ([6]; Table 4)
CC(O)CCO (stereo not drawn) [1,3-Butylene glycol] | Δ (The average of conductance change rate of 10 panelists is not less than 0.2 and less than 0.5) | Δ (The average of conductance change rate of 10 panelists is not less than 0.2 and less than 0.5) | Δ (The average of conductance change rate of 10 panelists is not less than 0.2 and less than 0.5) | – | – | – | – | – | – | – | – | – | – | – | – | – | – | –
OCC(O)CO [Glycerin] | ⊚ (The average of conductance change rate of 10 panelists is not less than 0 and less than 0.1) | ◯ (The average of conductance change rate of 10 panelists is not less than 0.1 and less than 0.2) | ◯ (The average of conductance change rate of 10 panelists is not less than 0.1 and less than 0.2) | Δ (The average of 10 panelists is not less than 0.15 and less than 0.2) | Δ (The average of conductance change rate of 10 panelists is not less than 0.2 and less than 0.5) | X (Less than 3 special panelists recognized that there was refreshing feeling durability.) | – | – | – | – | – | – | – | – | – | – | – | –
Polyoxyethylene (10) polyoxypropylene (10) dimethyl ether [Compound 2] | – | – | – | – | – | – | ⊚ (Not less than 8 panelists recognized that the rough skin was improved.) | ⊚ (Not less than 8 panelists recognized that the rough skin was improved.) | ⊚ (The average of 10 panelists is not less than 0 and less than 0.1) | ⊚ (The average of 10 panelists is not less than 0 and less than 0.1) | ⊚ (The average of 10 panelists is not less than 0 and less than 0.1) | ⊚ (The average of 10 panelists is not less than 0 and less than 0.1) | ⊚ (The average of 10 panelists is not less than 0 and less than 0.1) | ⊚ (Not less than 8 special panelists recognized that there was refreshing feeling durability.) | ⊚ (Not less than 8 special panelists recognized that there was refreshing feeling durability.) | ⊚ (Not less than 8 special panelists recognized that there was refreshing feeling durability.) | ⊚ (Not less than 8 special panelists recognized that there was the moisturizing effect feeling.) | ⊚ (Not less than 8 special panelists recognized that there was the moisturizing effect feeling.)
